Target: human Factor Xa (Homo sapiens, UniProt P00742)
Assay: In vitro assay for inhibition of Factor Xa (2), fluorogenic assay
Format: biochemical
Details: substrate Rhodamine 110, bis-(CBZ-glycylglycyl-L-arginine amide 10 μM), Ki calculated from IC50
Experimental: In Vitro Assay for Inhibition of Factor Xa (2)
All other compounds of the present invention were tested for their Factor Xa inhibitory activity as determined in vitro by their ability to inhibit human Factor Xa in a fluorogenic assay, using Rhodamine 110, bis-(CBZ-glycylglycyl-L-arginine amide as the fluorogenic substrate. Compounds were diluted from a 10 mM stock solution in dimethylsulfoxide at appropriate concentrations. Assay was performed at room temperature using buffer consisting of: 50 mM Tris-HCl, 150 mM NaCl, 5 mM CaCl2, pH 7.4. containing human Factor Xa (final conc. Of 0.0003U.ml−1). Compound and enzyme were preincubated for 15 min prior to addition of the substrate (final conc. of 10 μM). The reaction was stopped after 3 hrs with the addition of H-D-PHE-PRO-ARG-Chloromethylketone. […] To obtain IC50 values the data were analysed using ActivityBase® and XLfit®.
Calculation of Ki values:
Ki=IC50/(1+[Substrate]/Km)
The Ki value for the above assay can be obtained by dividing the IC50 value by 1.6.

Sequence of human Factor Xa (P00742 235-488 limits assumed): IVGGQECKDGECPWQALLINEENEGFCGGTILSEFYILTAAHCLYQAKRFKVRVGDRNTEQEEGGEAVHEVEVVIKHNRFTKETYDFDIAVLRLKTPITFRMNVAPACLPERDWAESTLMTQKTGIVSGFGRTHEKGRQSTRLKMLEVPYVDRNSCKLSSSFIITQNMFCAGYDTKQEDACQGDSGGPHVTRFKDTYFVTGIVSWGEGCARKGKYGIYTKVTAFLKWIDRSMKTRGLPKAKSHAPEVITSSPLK
Sequence of human Factor Xa (P00742 41-179 partner limits assumed): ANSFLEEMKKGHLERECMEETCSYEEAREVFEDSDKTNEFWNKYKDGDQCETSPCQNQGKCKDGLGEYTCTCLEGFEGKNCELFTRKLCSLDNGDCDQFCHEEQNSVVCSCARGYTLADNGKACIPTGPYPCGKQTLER

Structure (SMILES) | Ki
O=Cc1ccsc1-c1ccc(N2CC[C@H](NS(=O)(=O)c3ccc4cc(Cl)ccc4c3)C2=O)c(F)c1 [Example 70, 6-Chloro-N-{(3S)-1-[2-fluoro-4-(3-formylthien-2-yl)phenyl]-2-oxopyrrolidin-3-yl}naphthalene-2-sulfonamide] | < 20 nM
NC(=O)CN([C@H]1CCN(c2ccc(C(N)=O)cc2F)C1=O)S(=O)(=O)/C=C/c1ccc(Cl)s1 [Example 133, 4-[(3S)-3-((2-Amino-2-oxoethyl){[(E)-2-(5-chlorothien-2-yl)ethenyl]sulfonyl}amino)-2-oxopyrrolidin-1yl]-3-fluorobenzamide] | < 10 nM
O=C1[C@@H](NS(=O)(=O)c2ccc3cc(Cl)ccc3c2)CCN1c1ccc(-c2ccsc2)cc1F [Example 67, 6-Chloro-N-[(3S)-1-(2-fluoro-4-thien-3-ylphenyl)-2-oxopyrrolidin-3-yl]naphthalene-2-sulfonamide] | < 200 nM
O=C1[C@@H](NS(=O)(=O)c2ccc3cc(Cl)ccc3c2)CCN1c1ccccc1F [Example 101, 6-Chloro-N-[(3S)-1-(2-fluorophenyl)-2-oxopyrrolidin-3-yl]naphthalene-2-sulfonamide] | < 1000 nM
O=C1[C@@H](NS(=O)(=O)/C=C/c2ccc(Cl)s2)CCN1c1ccc(-c2ccccc2C(F)(F)F)cn1 [Example 24, (E)-2-(5-Chlorothien-2-yl)-N-((3S)-2-oxo-1-{5-[2-(trifluoromethyl)phenyl]pyridin-2-yl}pyrrolidin-3yl)ethenesulfonamide] | < 10 nM
Cc1cn(-c2ccc(N3CC[C@H](NS(=O)(=O)c4ccc5cc(Cl)ccc5c4)C3=O)c(F)c2)cn1 [Example 128, 6-Chloro-N-{(3S)-1-[2-fluoro-4-(4-methyl-1H-imidazol-1-yl)phenyl]-2-oxopyrrolidinyl}-2-naphthalenesulfonamide] | < 10 nM
NCc1cccc(-c2ccc(N3CC[C@H](NS(=O)(=O)c4ccc5cc(Cl)ccc5c4)C3=O)c(F)c2)c1 [Example 64] | < 10 nM
CC(C)(C)OC(=O)CN([C@H]1CCN(c2ccc(-c3ccccc3S(C)(=O)=O)cn2)C1=O)S(=O)(=O)/C=C/c1ccc(Cl)s1 [Example 40, tert-Butyl [{[(E)-2-(5-Chlorothien-2-yl)ethenyl]sulfonyl}((3S)-1-{5-[2-(methylsulfonyl)phenyl]pyridin-2-yl}-2-oxopyrrolidin-3-yl)amino]acetate] | < 10 nM

The next lines start with the values.

Ki | Structure (SMILES)
< 10 nM | O=C1[C@@H](NS(=O)(=O)c2ccc3cc(Cl)ccc3c2)CCN1c1ccc(-c2ncccc2Cl)cc1F [Example 82, 6-Chloro-N-{(3S)-1-[4-(3-chloropyridin-2-yl)-2-fluorophenyl]-2-oxopyrrolidin-3-yl}naphthalene-2-sulfonamide]
< 20 nM | CS(=O)(=O)c1ccccc1-c1ccc(N2CC[C@H](NS(=O)(=O)c3cnc(-c4ccc(Cl)s4)s3)C2=O)c(F)c1 [Example 86, 2-(5-Chlorothien-2-yl)-N-{(3S)-1-[3-fluoro-2′-(methylsulfonyl)-1,1′-biphenyl-4-yl]-2-oxopyrrolidin-3-yl}-1,3-thiazole-5-sulfonamide]
< 10 nM | C/C(=C\S(=O)(=O)N[C@H]1CCN(c2ccc(-c3ccccc3S(N)(=O)=O)cc2F)C1=O)c1ccc(Cl)s1 [Example 16, 4′-[(3S)-3-({[(1E)-2-(5-Chlorothien-2-yl)prop-1-enyl]sulfonyl}amino)-2-oxopyrrolidin-1-yl]-3′-fluoro-1,1′-biphenyl-2-sulfonamide]
< 10 nM | O=C1[C@@H](NS(=O)(=O)/C=C/c2ccc(Cl)s2)CCN1c1ccc(-c2ccccc2[N+](=O)[O-])cc1F [Example 18, (E)-2-(5-Chlorothien-2-yl)-N-[(3S)-1-(3-fluoro-2′-nitro-1,1′-biphenyl-4-yl)-2-oxopyrrolidin-3-yl]ethenesulfonamide]
< 200 nM | CSc1ccc(-c2ccc(N3CC[C@H](NS(=O)(=O)c4ccc5cc(Cl)ccc5c4)C3=O)c(F)c2)cn1 [Example 60, 6-Chloro-N-((3S)-1-{2-fluoro-4-[6-(methylthio)pyridin-3-yl]phenyl}-2-oxopyrrolidin-3-yl)naphthalene-2-sulfonamide]

Reference: US20050059726A1, “Pyrrolidine-2-ones as factor xa inhibitors” (priority 2001, published 2005)
